Measured values from patent publication US7741521B2, “Inhibition of bid-induced cell-death using small organic molecules” (The Burnham Institute, priority 2004, dated 2010).

Tests used:
tBID [1] = biological target: T1, tBID (Mus musculus, UniProt P70444); assay: tBID-induced Smac release from isolated mitochondria; type: biochemical; conditions: for tBID-induced Smac release from mitochondria isolated from HeLa cells: 50 ng tBid
T1 construct: tBID was produced by cleavage of purified BID with caspase-8, as known in the art; made in house; host or cells: E. coli BL21 (BID), then cleaved in vitro with caspase-8
T1 sequence (P70444 60-195 limits assumed): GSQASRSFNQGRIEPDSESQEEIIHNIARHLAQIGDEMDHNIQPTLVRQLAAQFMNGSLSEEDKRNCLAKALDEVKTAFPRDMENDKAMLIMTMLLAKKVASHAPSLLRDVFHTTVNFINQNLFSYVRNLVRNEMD
T1 sequence (P70444 1-59 partner limits assumed): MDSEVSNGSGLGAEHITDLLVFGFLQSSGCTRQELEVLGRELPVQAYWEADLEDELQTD
Procedure: 100 ng of tBID (cleaved by caspase 8) was pre-incubated with various concentrations of compounds for 15 minutes at 30° C. in HM buffer (10 mM Hepes, pH 7.4, 250 mM Mannitol, 10 mM KCl, 1.5 mM MgCl, 1 mM DTT, 1 mM EGTA), then 50 μg of isolated mitochondria from HCT116 cells were added to a final volume of 50 μl in HM buffer. After 1 hour incubation at 30° C., the samples were centrifuged at 10,000×g for 5 minutes at 4° C. and the supernatant was analyzed by SDS-PAGE/immunoblotting using anti-SMAC antibody.
(§1) Compounds II-IX were tested in vitro for their ability to inhibit BID-mediated release of Smac using mitochondria isolated from HeLa cells (FIG. 6A). The first lane represents mitochondria incubated without tBID. All others received 100 ng tBID without or with compounds. Each compound was tested at a concentration of 50 μM. […] To preliminarily investigate the mechanism by which compound II reduces Smac-release from isolated mitochondria, the tBID protein was treated with different concentrations of BI-6C9, after which it was incubated with mitochondria, followed by analysis of the bound and unbound fractions by immunoblotting using BID antibody. The concentration of mitochondria-bound tBID diminished in response to increasing concentrations of compound II.
About 50 ng of tBID cleaved by […] was pre-incubated for about 15 minutes at about 30° C. with various concentrations of compounds I, II, and X. Then, about 50 μg of isolated mitochondria from Hela cells were added to the reaction system. After about 1 hour of incubation at about 30° C., the samples were centrifuged at 10,000×g for about 5 minutes at about 4° C., and the supernatant was analyzed by SDS-PAGE/immunoblotting using Smac antibody. The results of the analysis are presented on FIG. 8. As shown by FIG. 9, compound I is a strong binder for BID.
Some results of comparative studies of compounds I and II are shown on FIG. 10. […] The first lane represents mitochondria incubated without tBID. All others received 50 ng tBid without or with bi-dentate compound.

[2] = tested on: primary hippocampal neurons; assay: Glutamate-induced cell death in primary hippocampal neurons; type: cell-based
Procedure: Primary cultures were obtained from embryonic day 18 rats and cultured in Neurobasal medium (Invitrogen, Karlsruhe, Germany) supplemented with 5 mM HEPES, 1.2 mM glutamine, B27 supplement (Invitrogen, 20 ml/l) and gentamicin (0.1 mg/ml) as described in the art. Glutamate (20 μM) was added in 9-10 day old cultures in EBSS medium (6800 mg/L NaCl, 400 mg/L KCl, 264 mg/L CaCl2×2H2O, 200 mg/L MgCl2×7H2O, 2200 mg/L NaHCO3, 140 mg/L NaH2PO4×H2O, 10 mM glucose, pH 7.2).
Neuronal cell death was quantified after staining the nuclei with the DNA-binding fluorochrome Hoechst 33258 (Molecular Probes) or by the MTT assay. Immunocytochemistry was performed as described in the art, with a polyclonal anti-AIF antibody (sc-9416, Santa Cruz; 1:200) followed by incubation a biotinylated anti-goat IgG antibody (1:200) Vector Laboratories) and Oregon Green-streptavidin (Molecular Probes). […]
To assess whether the compounds of the present invention would also prevent neuronal cell death in primary cultures, a number of cell-based assays were performed. […] Twenty-four hours later, apoptotic nuclei were quantified after staining with Hoechst 33342. In a separate experiment (FIG. 11C), the protective effect of Compound I against glutamate-induced cell death was quantified by the MTT assay. […]

tBID [3] = biological target: T1, tBID; assay: tBID association with isolated mitochondria (immunoblot with BID antibody); type: biochemical; conditions: at 20 μM
Procedure: as §1

caspase-3 = biological target: T2, caspase-3 (Homo sapiens, UniProt P42574); assay: Caspase-3 in vitro assay; type: biochemical; conditions: concentrations used in the cellular assay
T2 sequence (P42574 29-175 limits assumed): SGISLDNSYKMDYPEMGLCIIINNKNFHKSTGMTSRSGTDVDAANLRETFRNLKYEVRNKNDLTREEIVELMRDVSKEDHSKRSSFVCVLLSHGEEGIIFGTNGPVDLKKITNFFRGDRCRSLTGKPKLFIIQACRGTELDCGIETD
T2 sequence (P42574 176-277 limits assumed): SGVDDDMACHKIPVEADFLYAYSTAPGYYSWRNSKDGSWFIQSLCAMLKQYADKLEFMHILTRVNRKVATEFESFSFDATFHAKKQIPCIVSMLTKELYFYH

caspase-8 = caspase-8 (Homo sapiens, UniProt Q14790); assay: Caspase-8 mediated BID cleavage (SDS page); type: biochemical; conditions: concentrations used in the cellular assay
Chain of caspase-8 (Q14790 217-374 limits assumed, species assumed): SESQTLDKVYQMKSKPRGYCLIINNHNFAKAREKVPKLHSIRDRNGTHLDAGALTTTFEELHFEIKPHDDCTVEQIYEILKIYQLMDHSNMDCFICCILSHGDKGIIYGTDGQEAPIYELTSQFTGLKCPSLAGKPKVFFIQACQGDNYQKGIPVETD
Chain of caspase-8 (Q14790 385-479 limits assumed, species assumed): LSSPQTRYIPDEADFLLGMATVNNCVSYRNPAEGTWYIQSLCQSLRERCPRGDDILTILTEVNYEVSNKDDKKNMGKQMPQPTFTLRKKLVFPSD

SMILES | tBID-induced Smac release from mitochondria isolated from HeLa cells (tBID [1]) | concentration range of dose-dependent neuroprotective effect ([2]; 1 hour pretreatment, glutamate 20 μM, 24 hours, Hoechst 33342 apoptotic nuclei) | toxicity to primary hippocampal neurons ([2]; at higher concentrations (20 μM)) | inhibition of tBID association with isolated mitochondria (tBID [3]) | inhibition at 50 µM (tBID [1]; 50 μM compound, isolated mitochondria) | reduction of tBID-induced Smac release (tBID [1]; 50 μM, 100 ng tBID, mitochondria isolated from HeLa cells) | decrease of Smac release, dose experiment (tBID [1]; at concentrations as low as 20 μM) | inhibition of caspase-3 (caspase-3) | effect on caspase-8 mediated BID cleavage (caspase-8)
Nc1ccc(Sc2ccc(NC(=O)CNC(=O)c3ccc(O)cc3O)cc2)cc1 [Compound I, N-((4-(4-aminophenylthio)phenylcarbamoyl)methyl)-2,4-dihydroxybenzamide] | block | 0.2 to 2 µM | some toxicity |  |  |  |  |  | 
COc1ccc(S(=O)(=O)NCCCC(=O)Nc2ccc(Sc3ccc(N)cc3)cc2)cc1 [Compound II, N-[4-(4-amino-phenylsulfanyl)-phenyl]-4-(4-methoxy-benzenesulfonylamino)-butyramide] | block |  |  | effective | 100% | significantly reduce | dramatically decreased | does not inhibit | does not impair
